Holding throughout (assay): Binding assay using cell expressing the prostanoid receptor subtypes, [3H]-PGE2 competition on CHO membrane fraction
In one assay the target is T1, EP3 receptor (Mus musculus, UniProt P30557).
T1 construct: expressed in transfected cells; host or cells: CHO cells
T1 sequence (P30557 1-365): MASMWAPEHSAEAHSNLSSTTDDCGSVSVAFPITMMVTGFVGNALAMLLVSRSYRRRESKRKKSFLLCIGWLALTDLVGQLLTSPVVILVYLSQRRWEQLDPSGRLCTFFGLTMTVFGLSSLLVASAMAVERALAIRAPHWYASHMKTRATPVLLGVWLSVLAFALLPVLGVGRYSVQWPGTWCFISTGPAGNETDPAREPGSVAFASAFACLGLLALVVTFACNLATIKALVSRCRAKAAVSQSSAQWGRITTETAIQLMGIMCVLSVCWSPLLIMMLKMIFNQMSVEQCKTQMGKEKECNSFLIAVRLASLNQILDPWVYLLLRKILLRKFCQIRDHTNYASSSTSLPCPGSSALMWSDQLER
The following applies: mouse EP3α, [3H]-PGE2 2.5 nM, pH 6.0. Here is the method: (§1) (i) Binding Assay Using Cell Expressing the Prostanoid Receptor Subtypes
(§2) The preparation of membrane fraction was carried out according to the method of Sugimoto et al [J. Biol. Chem. 267, 6463-6466 (1992)], using CHO cell expressing prostanoid receptor subtypes (mouse EP1, EP2, EP3α, and EP4).
(§3) The standard assay mixture containing membrane fraction (50 μL), [^3H]-PGE2 in a final volume of 150 μL was incubated for 1 hour at room temperature. The reaction was terminated by addition of 3 mL of ice-cold buffer. The mixture was rapidly filtered through a glass filter (GF/B) under reduced pressure. The radioactivities associated with the filters were measured by liquid scintillation counter.
(§4) Kd and Bmax values were determined from Scatchard plots [Ann. N.Y. Acad. Sci. 51, 660(1949)]. Non-specific binding was determined as the amount bound in the presence of an excess (2.5 μM) of unlabeled PGE2. In the experiment for competition of specific [^3H]-PGE2 binding assay, [^3H]-PGE2 was added at a concentration of 2.5 nM and a test compound of the present invention was added at various concentrations. The following buffer was used in all reactions.
(§5) Buffer: 10 mM potassium phosphate (pH 6.0), 1 mM EDTA, 10 mM MgCl2, 0.1 M NaCl.
(§6) The inhibition constant (Ki) (μM) of each compound was calculated by the following equation.

The next assay addresses T2, EP4 receptor (Mus musculus, UniProt P32240).
T2 construct: expressed in transfected cells; host or cells: CHO cells
The following applies: mouse EP4, [3H]-PGE2 2.5 nM, pH 6.0. As to the method:
as §1, §2, §3, §4, §5, §6

The next assay has as its target T3, EP2 receptor (Mus musculus, UniProt Q62053).
T3 construct: expressed in transfected cells; host or cells: CHO cells
The settings on record: mouse EP2, [3H]-PGE2 2.5 nM, pH 6.0. As to the method:
as §1, §2, §3, §4, §5, §6

The target in the next assay is T4, EP1 receptor (Mus musculus, UniProt P35375).
T4 construct: expressed in transfected cells; host or cells: CHO cells
T4 sequence (P35375 1-405): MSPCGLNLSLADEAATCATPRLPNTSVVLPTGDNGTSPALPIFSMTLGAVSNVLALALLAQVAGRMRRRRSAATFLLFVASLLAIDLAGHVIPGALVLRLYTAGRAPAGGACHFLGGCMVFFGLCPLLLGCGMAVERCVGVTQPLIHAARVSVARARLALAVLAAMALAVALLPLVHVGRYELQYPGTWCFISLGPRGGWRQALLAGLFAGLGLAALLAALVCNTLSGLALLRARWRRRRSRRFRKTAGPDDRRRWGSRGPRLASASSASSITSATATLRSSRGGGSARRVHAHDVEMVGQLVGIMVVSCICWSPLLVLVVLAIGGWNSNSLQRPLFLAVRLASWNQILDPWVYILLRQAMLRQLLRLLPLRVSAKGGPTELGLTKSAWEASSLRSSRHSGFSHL
The settings on record: mouse EP1, [3H]-PGE2 2.5 nM, pH 6.0. As to the method:
as §1, §2, §3, §4, §5, §6

The structures appear in SMILES notation.

T3 sequence (Q62053 whole entry): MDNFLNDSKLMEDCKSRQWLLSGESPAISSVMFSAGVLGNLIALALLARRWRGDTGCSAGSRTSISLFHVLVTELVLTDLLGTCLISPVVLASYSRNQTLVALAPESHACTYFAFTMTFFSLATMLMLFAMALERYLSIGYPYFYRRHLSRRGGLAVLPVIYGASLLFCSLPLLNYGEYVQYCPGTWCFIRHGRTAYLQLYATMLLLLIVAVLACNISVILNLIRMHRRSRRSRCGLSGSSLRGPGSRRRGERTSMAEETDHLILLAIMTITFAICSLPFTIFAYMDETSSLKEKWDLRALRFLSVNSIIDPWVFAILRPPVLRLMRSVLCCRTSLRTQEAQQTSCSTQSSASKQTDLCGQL
T2 sequence (P32240 whole entry): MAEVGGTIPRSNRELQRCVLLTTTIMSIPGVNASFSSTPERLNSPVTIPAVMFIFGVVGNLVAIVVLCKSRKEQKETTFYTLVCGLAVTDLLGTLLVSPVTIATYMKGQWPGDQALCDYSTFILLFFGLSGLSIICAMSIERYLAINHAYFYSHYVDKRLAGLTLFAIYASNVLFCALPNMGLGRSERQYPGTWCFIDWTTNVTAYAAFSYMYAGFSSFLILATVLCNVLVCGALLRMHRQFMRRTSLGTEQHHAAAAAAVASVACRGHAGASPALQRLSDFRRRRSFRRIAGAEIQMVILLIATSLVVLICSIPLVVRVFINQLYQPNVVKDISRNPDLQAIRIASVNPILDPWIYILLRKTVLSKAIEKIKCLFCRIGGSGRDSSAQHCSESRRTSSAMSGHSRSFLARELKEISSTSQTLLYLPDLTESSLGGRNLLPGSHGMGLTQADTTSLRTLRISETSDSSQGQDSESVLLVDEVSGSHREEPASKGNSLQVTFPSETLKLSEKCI

For the molecule `CC(C(=O)Nc1ccccc1Cc1ccccc1C(=O)O)c1ccc(OCc2ccccc2)cc1` (stereo not shown) [2(1), 2-[2-[2-(4-Benzyloxyphenyl)propanoylamino]phenyl]methylbenzoic Acid], the Ki at EP3 receptor came out at 60 nM; at EP4 receptor, 10 nM; at EP2 receptor it was 8000 nM; on EP1 receptor it was 1500 nM.

These data come from patent US20040002493A1, “Benzoic acid derivatives and pharmaceutical agents comprising the same as active ingredient” (priority 2000, published 2004).
